In patent publication US9216995B2, “Pyridone derivative having integrase inhibitory activity” (SHIONOGI & CO., LTD., priority 2010, dated 2015):

Tests used:
[1] = tested on: HIV; experiment: Anti-HIV activity (HeLa-CD4 cells, β-gal reporter assay); format: cell-based; settings: Human immunodeficiency virus 1, 72 h, concentration to inhibit HIV infection by 50%, 3 days, luminescence
Experimental: A HeLa-CD4 cell suspension (2.5×10^4 cell/well) was dispensed to each well on an assay plate. After incubating at 37° C. for 1 hour under condition of 5% CO2, a solution to dilute a compound (50 μL) was added to each well (provided that a cell control was excluded). A culture solution (50 μL) was added to a well of the cell control. The plate was incubated at 37° C. for 3 days under condition of 5% CO2.
After the culture solution was aspirated from each well, 100 μL of a cell lysate of the reporter assay kit—β gal—was added to all wells, and then the plate was frozen at −80° C. to completely lyse cells. The plate was left at room temperature to unfreeze the cell lysate, it was centrifuged at 1200 rpm for 5 minutes at room temperature (Kubota centrifuge KR-600P). 20 μL of the supernatant was dispensed from each well to 96-well black plate, 100 μL of a luminescent reagent of the reporter assay kit—β gal—was added to each well. The plate was incubated at room temperature for 1 hour. The luminescence intensity from each well was measured by MicroBeta TRILUX instrument (PerkinElmer). A concentration (conc.) to inhibit HIV infection by 50% was calculated to obtain an EC50 value.

[2] = target: HIV integrase (Human immunodeficiency virus type 1 group M subtype B, UniProt P04585); experiment: Integrase inhibitory activity (strand transfer ELISA on streptavidin plates); format: biochemical; settings: integrase inhibition rate, absorbance OD 405 nm
Experimental: By the same method as that described in Experimental Example 1 of Patent Document 2, a substrate DNA solution (2 μmol/μl) and a target DNA solution (5 μmol/μl) were prepared. […] Each sequence of a substrate DNA and a target DNA is as described in the same Experimental Example.
(2) Measurement of Inhibition Rate (IC50 Value)
Onto Immobilizer—Streptavidin Plates (manufactured by NUNC) was added 50 μl of a substrate DNA solution (2 μmol/μl). After adsorbing at room temperature for 60 minutes under shaking, it was washed with a phosphate buffer two times.
Then, to each well prepared as described above were added 12 μl of a buffer (composition: 150 mM MOPS (pH7.2), 75 mM MnCl2, 50 mM 2-mercaptoethanol, 25% glycerol, 500 μg/ml bovine serum albumin-fraction V), and 51 μl of a reaction solution prepared from 39 μl of distilled water. Then, 9 μl of an integrase solution (30 μmol) was added, and the mixture was mixed well. To a well as a negative control (NC) was added 9 μl of a diluting solution (composition: 20 mM MOPS (pH 7.2), 400 mM potassium glutamate, 1 mM EDTA, 0.1% NP-40, 20% glycerol, 1 mM DTT, 4 M urea), and this was mixed well using a plate mixer.
After the plate was incubated at 30° C. for 60 minutes, the reaction solution was discarded, followed by washing with 200 μl of a washing buffer (composition: 150 mM MOPS (pH 7.2), 50 mM 2-mercaptoethanol, 25% glycerol, 500 μg/ml bovine serum albumin-fraction V) three times.
Then, to each well were added 12 μl of a buffer (composition: 150 mM MOPS (pH 7.2), 75 mM MgCl2, 50 mM 2-mercaptoethanol, 25% glycerol, 500 μg/ml bovine serum albumin-fraction V), and 53 μl of a reaction solution prepared from 41 μl of distilled water. Further, 6 μl of a solution of a test compound in DMSO was added to each well, and 6 μl of DMSO was added to a well as a positive control (PC), followed by mixing well using a plate mixer. After the plate was incubated at 30° C. for 60 minutes, 1 μl of a target DNA (5 μmol/μl) was added, and this was mixed well using a plate mixer.
After each plate was incubated at 30° C. for 10 minutes, the reaction solution was discarded, followed by washing with a phosphate buffer two times. Then, an anti-digoxigenin antibody labeled with alkaline phosphatase (sheep Fab fragment: manufactured by Boehringer) was diluted 2000-fold with an antibody diluting solution, 100 μl of the diluent was added to bind at 30° C. for 1 hour, and this was washed successively with a phosphate buffer containing 0.05% Tween 20 two times, and a phosphate buffer two times. […]
C abs.: Absorbance of well of compound
NC abs.: Absorbance of NC
PC abs.: Absorbance of PC

EC50 [1] [nM]	SMILES	IC50 [2] [nM]
46	C[C@@H]1CCO[C@H]2Cn3cc(C(=O)NCCC4CCCCC4)c(=O)c(O)c3C(=O)N12 [Compound A-42]	–
16	C[C@@H]1CCO[C@H]2Cn3cc(C(=O)NC(c4ccccc4)c4ccccc4)c(=O)c(O)c3C(=O)N12 [Compound A-15]	–
25	C[C@@H]1CCO[C@H]2Cn3cc(C(=O)NC[C@@H]4CCCO4)c(=O)c(O)c3C(=O)N12 [Compound A-21]	–
22	C[C@@H]1CCO[C@H]2Cn3cc(C(=O)NCCc4cccs4)c(=O)c(O)c3C(=O)N12 [Compound A-65]	–
15	C[C@@H]1CCO[C@H]2Cn3cc(C(=O)NNC(=O)c4ccc(F)cc4)c(=O)c(O)c3C(=O)N12 [Compound A-38]	–
38	C[C@@H]1CCO[C@H]2Cn3cc(C(=O)NCc4nc5ccccc5s4)c(=O)c(O)c3C(=O)N12 [Compound A-66]	–
32	C[C@@H]1CCO[C@H]2Cn3cc(C(=O)NCc4nccs4)c(=O)c(O)c3C(=O)N12 [Compound A-12]	–
42	C[C@@H]1CCO[C@H]2Cn3cc(C(=O)NCc4ccoc4)c(=O)c(O)c3C(=O)N12 [Compound A-41]	–

SMILES	EC50 [1] [nM]	IC50 [2] [nM]
C[C@@H]1CCO[C@H]2Cn3cc(C(=O)NCc4cccs4)c(=O)c(O)c3C(=O)N12 [Compound A-39]	11	27
C[C@@H]1CCO[C@H]2Cn3cc(C(=O)NCc4cc5ccccc5s4)c(=O)c(O)c3C(=O)N12 [Compound A-20]	11	28.4
C[C@@H]1CCO[C@H]2Cn3cc(C(=O)NCC4CCCCCC4)c(=O)c(O)c3C(=O)N12 [Compound A-50]	32	13.5
C[C@@H]1CCO[C@H]2Cn3cc(C(=O)NCc4ccsc4)c(=O)c(O)c3C(=O)N12 [Compound A-56]	6.4	29.7
